ChEMBL document CHEMBL3112498, “Inhibition of protein kinase C α/βII and activation of c-Jun NH2-terminal kinase mediate glycyrrhetinic acid induced apoptosis in non-small cell lung cancer NCI-H460 cells” (Bioorg Med Chem Lett, 2014)
≈ marks a conversion by molar mass, not a printed value. Calls of active or inactive are those of the source. No cut-off for these calls is given here.

What was measured:
NCI-H460 [1] = test: Induction of apoptosis in human NCI-H460 cells assessed as downregulation of cyclin E protein expression at 12.5 to 50 uM after 24 hrs by Western blot analysis; type: functional, cell-based
NCI-H460 [2] = test: Cell cycle arrest in human NCI-H460 cells assessed as accumulation at sub-G1 phase at 50 uM after 24 hrs by propidium iodide staining-based flow cytometric analysis in presence of PKC promoter PMA, JNK inhibitor SP600125; type: functional
NCI-H460 [3] = test: Inhibition of ERK phosphorylation in human NCI-H460 cells at 12.5 to 50 uM after 24 hrs by Western blot analysis; type: cell-based
NCI-H460 [4] = test: Induction of apoptosis in human NCI-H460 cells assessed as DNA fragmentation after 24 hrs by DAPI staining-based TUNEL assay; type: functional, cell-based
A549 [5] = test: Induction of apoptosis in human A549 cells assessed as PARP cleavage at 12.5 to 50 uM after 24 hrs by Western blot analysis; type: functional, cell-based
A549 [6] = test: Cell cycle arrest in human A549 cells assessed as accumulation at sub-G1 phase at 50 uM after 1 hr by propidium iodide staining-based flow cytometric analysis; type: functional
NCI-H460 [7] = test: Cytotoxicity against human NCI-H460 cells assessed as cell viability after 24 hrs by XTT assay; type: functional, cell-based; settings: NCI-H460, 24 h
NCI-H460 [8] = test: Induction of apoptosis in human NCI-H460 cells assessed as PARP cleavage at 12.5 to 50 uM after 24 hrs by Western blot analysis; type: functional, cell-based
NCI-H460 [9] = test: Induction of apoptosis in human NCI-H460 cells assessed as caspase-3 cleavage at 50 uM after 24 hrs by Western blot analysis in presence of PKC promoter PMA, JNK inhibitor SP600125; type: functional, cell-based
[10] = biological target: c-Jun N-terminal kinase, JNK (Homo sapiens) (UniProt P45983+P53779+P45984); test: Induction of c-Jun N-terminal kinase phosphorylation in human NCI-H460 cells at 12.5 to 50 uM after 24 hrs by Western blot analysis; type: cell-based
NCI-H460 [11] = test: Induction of apoptosis in human NCI-H460 cells assessed as activation of caspase 9/3 at 12.5 to 50 uM after 24 hrs by Western blot analysis; type: functional, cell-based
NCI-H460 [12] = test: Cell cycle arrest in human NCI-H460 cells assessed as accumulation at sub-G1 phase at 50 uM after 1 hr by propidium iodide staining-based flow cytometric analysis (reference value: 2.2%); type: functional
NCI-H460 [13] = test: Induction of apoptosis in human NCI-H460 cells assessed as downregulation of cyclin D1 protein expression at 12.5 to 50 uM after 24 hrs by Western blot analysis; type: functional, cell-based
NCI-H460 [14] = test: Cell cycle arrest in human NCI-H460 cells assessed as accumulation at sub-G1 phase after 1 hr by propidium iodide staining-based flow cytometric analysis; type: functional
[15] = biological target: T1, PKC alpha and beta-2 (Homo sapiens) (UniProt P17252+P05771); test: Inhibition of PKC alpha/beta-2 phosphorylation in human NCI-H460 cells at 12.5 to 50 uM after 24 hrs by Western blot analysis; type: cell-based
T1 sequence (P05771 whole entry, looked up): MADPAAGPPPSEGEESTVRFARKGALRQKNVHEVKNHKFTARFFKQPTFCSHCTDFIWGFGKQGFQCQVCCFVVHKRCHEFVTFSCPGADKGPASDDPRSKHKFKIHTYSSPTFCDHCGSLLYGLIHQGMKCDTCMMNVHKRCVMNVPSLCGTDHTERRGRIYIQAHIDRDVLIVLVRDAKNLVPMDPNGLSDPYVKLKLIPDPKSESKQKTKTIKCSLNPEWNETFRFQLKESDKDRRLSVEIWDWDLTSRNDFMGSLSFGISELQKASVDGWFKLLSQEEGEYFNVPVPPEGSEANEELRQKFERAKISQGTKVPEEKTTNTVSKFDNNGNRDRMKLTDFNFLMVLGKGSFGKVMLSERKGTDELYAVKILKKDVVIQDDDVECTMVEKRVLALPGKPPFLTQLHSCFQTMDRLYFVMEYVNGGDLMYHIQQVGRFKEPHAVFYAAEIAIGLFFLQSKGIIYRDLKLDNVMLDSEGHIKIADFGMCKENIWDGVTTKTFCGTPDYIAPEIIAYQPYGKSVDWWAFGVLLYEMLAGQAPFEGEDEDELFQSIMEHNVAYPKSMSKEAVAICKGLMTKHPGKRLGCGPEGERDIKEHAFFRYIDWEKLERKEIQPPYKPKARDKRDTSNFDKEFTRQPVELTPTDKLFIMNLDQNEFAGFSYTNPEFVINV

NCI-H460 [16] = test: Induction of apoptosis in human NCI-H460 cells assessed as PARP cleavage at 50 uM after 24 hrs by Western blot analysis in presence of PKC promoter PMA, JNK inhibitor SP600125; type: functional, cell-based
NCI-H460 [17] = test: Induction of apoptosis in human NCI-H460 cells assessed as downregulation of Bcl-xL protein expression at 12.5 to 50 uM after 24 hrs by Western blot analysis; type: functional, cell-based
[18] = biological target: T1, PKC alpha and beta-2 (Homo sapiens); test: Inhibition of PKC alpha/beta-2 phosphorylation in human NCI-H460 cells at 50 uM after 24 hrs by Western blot analysis in presence of PKC promoter PMA, JNK inhibitor SP600125; type: cell-based
A549 [19] = test: Cytotoxicity against human A549 cells assessed as cell viability after 24 hrs by XTT assay; type: functional, cell-based; settings: A549, 24 h
NCI-H460 [20] = test: Cell cycle arrest in human NCI-H460 cells assessed as accumulation at sub-G1 phase at 12.5 uM after 1 hr by propidium iodide staining-based flow cytometric analysis (reference value: 2.2%); type: functional
NCI-H460 [21] = test: Induction of apoptosis in human NCI-H460 cells assessed as downregulation of Bcl-2 protein expression at 12.5 to 50 uM after 24 hrs by Western blot analysis; type: functional, cell-based
[22] = biological target: Protein kinase C delta type (Homo sapiens) (UniProt Q05655); test: Induction of PKC-delta phosphorylation in human NCI-H460 cells at 12.5 to 50 uM after 24 hrs by Western blot analysis; type: cell-based
Chain of Protein kinase C delta type (Homo sapiens) (Q05655 whole entry, looked up): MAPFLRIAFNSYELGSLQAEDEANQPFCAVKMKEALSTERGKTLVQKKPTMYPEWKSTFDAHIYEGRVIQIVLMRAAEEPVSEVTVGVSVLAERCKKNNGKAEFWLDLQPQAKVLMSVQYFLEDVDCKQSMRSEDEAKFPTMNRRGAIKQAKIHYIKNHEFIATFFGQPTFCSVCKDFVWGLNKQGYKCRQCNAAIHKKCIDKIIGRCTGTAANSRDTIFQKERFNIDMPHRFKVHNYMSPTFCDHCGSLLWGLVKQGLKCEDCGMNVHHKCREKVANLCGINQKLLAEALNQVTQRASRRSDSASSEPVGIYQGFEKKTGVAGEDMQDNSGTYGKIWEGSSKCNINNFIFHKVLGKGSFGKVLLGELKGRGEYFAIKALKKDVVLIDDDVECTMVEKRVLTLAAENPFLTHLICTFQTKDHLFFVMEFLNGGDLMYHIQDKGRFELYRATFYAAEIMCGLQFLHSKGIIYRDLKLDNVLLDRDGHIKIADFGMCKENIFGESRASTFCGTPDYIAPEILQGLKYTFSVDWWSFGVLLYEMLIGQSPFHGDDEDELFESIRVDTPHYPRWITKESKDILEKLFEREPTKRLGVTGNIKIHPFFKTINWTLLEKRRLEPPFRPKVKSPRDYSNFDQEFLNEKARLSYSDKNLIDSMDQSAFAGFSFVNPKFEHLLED

For `CC1(C)[C@@H](O)CC[C@]2(C)[C@H]3C(=O)C=C4[C@@H]5C[C@@](C)(C(=O)O)CC[C@]5(C)CC[C@@]4(C)[C@]3(C)CC[C@@H]12` [ENOXOLONE], the Activity (NCI-H460 [1]) was “Active”, the Activity (NCI-H460 [2]) was “inactive” and the inhibition (NCI-H460 [3]) was “Active”. The Activity (NCI-H460 [4]) was “Dose-dependent effect”, the Activity (A549 [5]) was “Active” and the Activity (A549 [6]) was “Active”. For the same molecule, the IC50 (NCI-H460 [7]) was 62 µg/mL (≈ 132 µM), the Activity (NCI-H460 [8]) was “Active” and the Activity (NCI-H460 [9]) was “inactive”. The Activity [10] was “Active”, the Activity (NCI-H460 [11]) was “Active” and the Activity (NCI-H460 [12]) was 40.1%. The Activity (NCI-H460 [13]) was “Active”, the Activity (NCI-H460 [14]) was “Dose-dependent effect” and the inhibition [15] was “Active”. The Activity (NCI-H460 [16]) was “inactive”, the Activity (NCI-H460 [17]) was “Active” and the inhibition [18] was “inactive”. The IC50 (A549 [19]) was 78 µg/mL (≈ 166 µM), the Activity (NCI-H460 [20]) was 2.8% and the Activity (NCI-H460 [21]) was “Active”. The Activity [22] was “Active”.
